Experimental data taken from ChEMBL document CHEMBL1201862, “PubChem BioAssay data set” (2004).
The source made the active and inactive calls.

Legend:
[1] = HEK293T cytotoxicity, dose response, cytotoxicity control for miR-122 modulator project, cell-based, activator set, cherry-pick (AID 720690); assay type: functional;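 further: HEK293T human cells scored for general mammalian cytotoxicity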
BJ [2] = test: cytotoxicity toward Ras-transformed BJeLR fibroblasts, dose response, cell-based, alamar blue fluorescence, cherrypicked samples (AID 2631); assay type: functional; conditions: Homo sapiens;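 further: confirmatory dose-response assay in RAS-dependent BJ fibroblasts engineered with TERT, LT and ST, with cytotoxicity read by fluorescence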
BJ [3] = test: cells; assay type: functional, cell-based; conditions: Homo sapiens
[4] = HEK293T cytotoxicity, dose response, cytotoxicity control for miR-122 modulator project, cell-based, inhibitor set, cherry-pick, set 2 (AID 720697); assay type: functional
[5] = miR-122 activators in hepatoma reporter cells, dose response, cell-based, Huh7 psiCHECK-miR122, Renilla luciferase, cherry-picked (AID 651956); assay type: functional;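 further: huh7 hepatoma cells stably carrying a psiCHECK-2 miR-122 sensor plasmid; renilla luciferase signal reporting endogenous miR-122 activity after 48 h compound exposure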
Fatty acid synthase [6] = target: T1, Fatty acid synthase (Homo sapiens, UniProt P49327); test: FAS thioesterase domain inhibitors, dose response, biochemical, endpoint fluorescence intensity, uHTS hits (AID 624327); assay type: functional;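 further: fluorescence from hydrolysis of an O-methyl fluorescein acyl ester substrate by the enzyme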
BJ [7] = test: cytotoxicity toward BJ-TERT fibroblasts, dose response, cell-based, RAS-independent, luminescence (AID 1933); assay type: functional; conditions: Homo sapiens
Fatty acid synthase [8] = target: T1, Fatty acid synthase; test: FAS thioesterase domain inhibitors, dose response, biochemical, kinetic fluorescence intensity (AID 624326); assay type: functional;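 further: rate of fluorescence rise from hydrolysis of a fluorogenic O-methyl fluorescein ester substrate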
BJ [9] = test: cytotoxicity toward BJ-TERT-LT-ST fibroblasts, dose response, cell-based, RAS-independent, luminescence (AID 1935); assay type: functional; conditions: Homo sapiens;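 further: BJ fibroblasts immortalized with TERT plus LT and ST oncogenes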
[10] = cytotoxicity toward DRD oncogenic fibroblasts, dose response, cell-based, non-viral oncogenic, luminescence (AID 1934); assay type: functional; conditions: Homo sapiens
[11] = P. falciparum late gametocyte killing, dose response, luminescence (AID 1117278); assay type: functional, cell-based;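 further: gametocytes exposed to compound for 24 hours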
[12] = Jurkat T cell cytotoxicity, dose response, cytotoxicity control for P. falciparum gametocyte viability project, luminescence (AID 1117277); assay type: functional, cell-based;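 further: potency reflects loss of cellular ATP meaning fewer viable cells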
[13] = P. falciparum Dd2 growth inhibitors, dose response, SYBR Green, cherry-picked samples (AID 1159567); assay type: functional, cell-based
[14] = HepG2 cell cytotoxicity, dose response, cytotoxicity control, plate reader, dry powder samples (AID 1159569); assay type: functional, cell-based;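 further: inhibitor potency with signal falling toward the positive control level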
[15] = P. falciparum 3D7-ScDHODH growth inhibitors, dose response, SYBR Green, dry powder samples (AID 1159570); assay type: functional, cell-based;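 further: parasite growth measured after 72 hours of compound exposure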
[16] = P. falciparum ATP4 D1247Y mutant growth inhibitors, dose response, NITD609-resistant line, SYBR Green, dry powder (AID 1159571); assay type: functional, cell-based;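 further: parasites synchronized at ring stage by sorbitol before testing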
[17] = P. falciparum Dd2 growth inhibitors, dose response, SYBR Green, dry powder samples (AID 1159566); assay type: functional, cell-based;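 further: potency for growth inhibition with lower SYBR green DNA signal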
[18] = human group III sPLA2 inhibitors, dose response, biochemical, QFRET, IC50 (AID 743457);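 further: green fluorescence rise as the enzyme cleaves BODIPY PC-A2 in liposomes; potency for inhibition of the enzyme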

T1 sequence (P49327 whole entry, the tested form may be a part): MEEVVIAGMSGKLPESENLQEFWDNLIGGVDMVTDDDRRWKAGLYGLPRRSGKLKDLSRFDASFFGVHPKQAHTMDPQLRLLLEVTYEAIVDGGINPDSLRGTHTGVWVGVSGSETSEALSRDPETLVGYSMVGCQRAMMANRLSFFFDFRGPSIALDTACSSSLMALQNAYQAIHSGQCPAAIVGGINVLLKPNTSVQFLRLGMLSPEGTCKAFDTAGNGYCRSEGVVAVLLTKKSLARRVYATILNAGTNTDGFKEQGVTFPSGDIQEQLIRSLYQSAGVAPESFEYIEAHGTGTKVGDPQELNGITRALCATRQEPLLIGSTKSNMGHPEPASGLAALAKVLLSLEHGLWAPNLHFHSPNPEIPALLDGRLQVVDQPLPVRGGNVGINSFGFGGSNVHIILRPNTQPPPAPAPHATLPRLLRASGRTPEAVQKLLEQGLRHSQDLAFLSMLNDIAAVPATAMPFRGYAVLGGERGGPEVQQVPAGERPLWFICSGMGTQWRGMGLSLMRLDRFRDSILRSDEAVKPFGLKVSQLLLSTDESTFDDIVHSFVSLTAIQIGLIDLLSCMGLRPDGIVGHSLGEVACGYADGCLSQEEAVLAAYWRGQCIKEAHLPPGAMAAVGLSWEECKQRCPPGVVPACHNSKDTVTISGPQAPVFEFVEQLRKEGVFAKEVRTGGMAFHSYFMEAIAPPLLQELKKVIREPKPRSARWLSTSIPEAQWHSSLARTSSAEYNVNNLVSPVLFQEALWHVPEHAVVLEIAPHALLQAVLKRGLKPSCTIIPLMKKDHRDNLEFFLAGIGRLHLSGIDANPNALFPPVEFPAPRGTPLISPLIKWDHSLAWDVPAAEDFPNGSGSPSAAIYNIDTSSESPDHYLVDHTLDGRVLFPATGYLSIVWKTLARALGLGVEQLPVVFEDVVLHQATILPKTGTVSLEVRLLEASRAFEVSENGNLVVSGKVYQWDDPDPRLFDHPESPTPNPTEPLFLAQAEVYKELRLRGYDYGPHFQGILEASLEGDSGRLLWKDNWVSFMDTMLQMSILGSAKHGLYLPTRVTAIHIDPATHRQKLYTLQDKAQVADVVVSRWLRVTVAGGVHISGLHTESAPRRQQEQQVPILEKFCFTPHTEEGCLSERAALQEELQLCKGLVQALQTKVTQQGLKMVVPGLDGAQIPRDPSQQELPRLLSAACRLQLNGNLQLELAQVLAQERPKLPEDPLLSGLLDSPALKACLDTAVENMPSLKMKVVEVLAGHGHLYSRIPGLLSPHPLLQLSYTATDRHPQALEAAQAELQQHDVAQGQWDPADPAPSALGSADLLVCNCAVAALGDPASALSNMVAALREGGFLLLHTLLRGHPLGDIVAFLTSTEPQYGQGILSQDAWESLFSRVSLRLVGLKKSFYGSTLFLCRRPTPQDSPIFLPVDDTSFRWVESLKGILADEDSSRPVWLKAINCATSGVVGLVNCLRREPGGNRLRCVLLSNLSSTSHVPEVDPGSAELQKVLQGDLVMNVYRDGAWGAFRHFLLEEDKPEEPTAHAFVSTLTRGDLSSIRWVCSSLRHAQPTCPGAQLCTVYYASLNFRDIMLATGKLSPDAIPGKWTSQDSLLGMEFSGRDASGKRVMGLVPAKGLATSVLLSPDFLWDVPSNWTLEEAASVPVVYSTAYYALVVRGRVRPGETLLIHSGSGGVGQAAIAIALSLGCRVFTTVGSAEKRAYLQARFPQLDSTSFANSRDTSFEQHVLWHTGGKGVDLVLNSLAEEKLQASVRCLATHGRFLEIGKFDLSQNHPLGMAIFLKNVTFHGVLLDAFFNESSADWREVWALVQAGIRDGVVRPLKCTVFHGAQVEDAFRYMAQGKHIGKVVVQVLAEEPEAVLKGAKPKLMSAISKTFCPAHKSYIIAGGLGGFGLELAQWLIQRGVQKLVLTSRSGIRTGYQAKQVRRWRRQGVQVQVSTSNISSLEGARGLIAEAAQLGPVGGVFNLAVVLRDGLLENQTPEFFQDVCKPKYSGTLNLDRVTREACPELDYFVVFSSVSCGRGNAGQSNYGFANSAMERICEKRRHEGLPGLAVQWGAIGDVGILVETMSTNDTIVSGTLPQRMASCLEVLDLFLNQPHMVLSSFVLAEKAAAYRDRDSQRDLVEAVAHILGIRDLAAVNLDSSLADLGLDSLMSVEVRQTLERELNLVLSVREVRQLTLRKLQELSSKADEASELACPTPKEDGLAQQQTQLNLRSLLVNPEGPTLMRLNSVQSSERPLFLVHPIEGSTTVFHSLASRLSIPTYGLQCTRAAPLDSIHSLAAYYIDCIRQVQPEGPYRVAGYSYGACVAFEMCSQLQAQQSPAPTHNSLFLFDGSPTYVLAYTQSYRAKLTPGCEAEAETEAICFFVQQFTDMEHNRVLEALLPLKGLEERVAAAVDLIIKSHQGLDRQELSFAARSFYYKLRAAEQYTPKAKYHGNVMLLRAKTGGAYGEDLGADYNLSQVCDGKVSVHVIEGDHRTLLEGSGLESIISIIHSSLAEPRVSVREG

O=C(NC(Nc1ncc(S(=O)(=O)c2ccc([N+](=O)[O-])cc2)s1)(C(F)(F)F)C(F)(F)F)c1ccc(Cl)cc1
AC50 [1]: 4.29 µM (active) | EC50 (BJ [2]): 83.6 µM (active) | EC50 (BJ [3]): 52.1 µM (active) | AC50 [4]: 9.01 µM (active) | AC50 [5]: 2.35 µM (active) | IC50 (Fatty acid synthase [6]): 9.12 µM (active) | EC50 (BJ [7]): 11 µM (inconclusive) | IC50 (Fatty acid synthase [8]): 7.87 µM (active) | EC50 (BJ [9]): 20.1 µM (active) | EC50 [10]: 12.4 µM (active)

CN1C(=O)c2cc(NC(=O)c3ccc(C(F)(F)F)cc3)ccc2OC[C@@H]2O[C@H](CC(=O)NCc3ccc4c(c3)OCO4)CC[C@@H]21
AC50 [1]: 12.6 µM (active) | AC50 [4]: 28 µM (active) | AC50 [5]: 6.22 µM (active)

CNC[C@H]1Oc2cc(C#CC3CCCCC3)ccc2S(=O)(=O)N([C@H](C)CO)C[C@@H]1C
AC50 [1]: 28.8 µM (active) | AC50 [4]: 0.433 µM (active)

COc1ccccc1CN(C)C(C)C(=O)Nc1cccc(C(C)=O)c1 (stereo not given)
IC50 [11]: > 109 µM (inactive) | IC50 [12]: > 83.3 µM (inactive)

NS(=O)(=O)c1ccc(N2CCCC2=O)c([N+](=O)[O-])c1
IC50 [11]: > 109 µM (inactive) | IC50 [12]: > 83.2 µM (inactive)

COc1ccc2c3c(n(C)c2c1)[C@@H](CO)N(Cc1ccc(Cl)cc1)CC31CCN(CC2CC2)CC1
AC50 [13]: 1.86 µM (active) | AC50 [14]: 22 µM (active) | AC50 [15]: 2.64 µM (active) | AC50 [16]: 1.7 µM (active) | AC50 [17]: 1.67 µM (active)

Sc1nnc(COc2ccc(Cl)cc2)n1-c1ccccc1
IC50 [18]: > 122 µM (inactive)
